The source of these data is patent US20060211724A1, “Hiv integrase inhibitors” (priority 2003, published 2006).

Where only a bound is given, the exact number is not on record here.

The target of one assay is T1, Recombinant His-tagged HIV-1 integrase (Human immunodeficiency virus type 1 group M subtype B, UniProt P12497, C1427S/F1332K).
T1 construct: Recombinant His-tagged HIV-1 integrase; His; made in house; host or cells: E. coli BL21(DE3)
Nature of the assay: Enzymatic integrase assay (oligonucleotide-based DNA strand transfer, ELISA). Format: biochemical.
Conditions: not given
As to the method:
Enzymatic Integrase Assay
The activity of HIV-integrase was determined using an oligonucleotide-based assay in which the DNA strand transfer by preformed complexes of integrase and processed DNA was measured by means of an enzyme-linked immunosorbent assay (ELISA) in microtiter plate format. Recombinant His-tagged HIV-1 integrase was produced in the E. coli strain BL21(DE3) from the plasmid pINSD.His.sol (available from NTH) after induction with isopropyl-β-D-thiogalactopyranoside (IPTG) according to described procedures (cfr. ref. Jenkins et al., “A soluble active mutant of HIV-1 integrase”, J. Biol. Chem. 271 ([…]), 7712-7718). HPLC-purified oligodeoxynucleotides were obtained from Proligo, and used for preparation of the viral DNA substrate and target DNA.
INb-1C is 5′-biotinylated, INT5 and INT6 are at the 3′-end labeled with FITC. INb-1C and IN-1NC correspond to the U5 end of the HIV-1 LTR. The DNA substrate for the integrase reactions was made by annealing INb-1C and IN-1NC. An equimolar mixture of INb-1C and IN-1NC was heated shortly at 95° C. in the presence of 100 mM NaCl and allowed to cool slowly to room temperature. In the same way, INT5 and INT6 were annealed to produce a target DNA molecule.
The integration strand transfer reactions were performed in the following way:
20 nM biotinylated DNA substrate INb-1C/IN-1NC was pre-incubated with 300 nM HIV-integrase at 37° C. for 5 min, to allow the cleavage reaction to occur. The candidate compounds and 50 nM target DNA INT5/INT6 were added to the reaction mix containing 20 mM Hepes pH 7.5, 25 mM NaCl, 5 mM MnCl2, 2 mM DTT, and 50 μg/ml BSA, and incubated for 2 h at 37° C. The reaction mix was transferred to streptavidin-coated plates (Exiqon), which were prewashed (three times) with 5×SSCT, and incubated for 1 h at room temperature to allow capture of the biotinylated viral DNA/target DNA complex. Plates were washed three times with 2×SSCT buffer, and anti-FITC POD-coupled antibody (Roche) was added and incubated for 1 h at room temperature to detect integrated FITC-labeled target DNA. After a final washing step with PBST (5 times), BM chemiluminescent POD-substrate (Roche) was added, and luminescence was read out.
The table below list the pIC50 values for those compounds tested in the enzymatic integrase assay. The pIC50 is expressed in Molar units and is the value according to the following formula: pIC50=−log IC50
wherein the IC50 value is the drug concentration at which 50% of the enzyme or viral activity is inhibited.
By IC50 is commonly meant the concentration needed to halve the response being measured. With `Cc1ccc(CN2C(=O)c3c(c(O)c4nccnc4c3O)C2=O)cc1` [Compound 3, 5,9-Dihydroxy-7-(4-methyl-benzyl)-pyrrolo[3,4-g]quinoxaline-6,8-dione], the IC50 is 1580 nM.
As to `O=C1c2c(c(O)c3nccnc3c2O)C(=O)N1Cc1ccc(Br)cc1` [Compound 4, 7-(4-Bromo-benzyl)-5,9-dihydroxy-pyrrolo[3,4-g]quinoxaline-6,8-dione], the IC50 was 219 nM.
For `O=C1c2c(c(O)c3ncccc3c2O)C(=O)N1Cc1ccc2c(c1)OCO2` [Compound 5, 7-Benzo[1,3]dioxol-5-ylmethyl-5,9-dihydroxy-pyrrolo[3,4-g]quinoline-6,8-dione], the IC50 was 5620 nM.
Still for that read-out and setting: to `O=C1c2c(c(O)c3nccnc3c2O)C(=O)N1Cc1ccc(Oc2ccccc2)cc1` [Compound 7, 5,9-Dihydroxy-7-(4-phenoxy-benzyl)-pyrrolo[3,4-g]quinoxaline-6,8-dione] belongs 4900 nM; to `Cc1ccc2c(O)c3c(c(O)c2n1)C(=O)N(C(C)c1ccccc1)C3=O` (stereo not shown) [Compound 8, 5,9-Dihydroxy-2-methyl-7-(1-phenyl-ethyl)-pyrrolo[3,4-g]quinoline-6,8-dione], 10700 nM.
The same measure, in the same setting: under `O=C1c2c(c(O)c3nccnc3c2O)C(=O)N1c1ccc2c(c1)OCO2` [Compound 10, 7-Benzo[1,3]dioxol-5-yl-5,9-dihydroxy-pyrrolo[3,4-g]quinoxaline-6,8-dione] stands 10000 nM; under `O=C1c2c(c(O)c3ccccc3c2O)C(=O)N1Cc1ccc(F)cc1` [Compound 11, 2-(4-Fluoro-benzyl)-4,9-dihydroxy-benzo[f]isoindole-1,3-dione], > 100000 nM.
Regarding `O=C1c2c(c(O)c3ccccc3c2O)C(=O)N1CCc1ccccc1` [Compound 12, 4,9-Dihydroxy-2-phenethyl-benzo[f]isoindole-1,3-dione], the IC50 was > 100000 nM.
Same read-out and setting: under `O=C1c2c(c(O)c3c(F)cccc3c2O)C(=O)N1Cc1ccc(F)cc1` [Compound 13, 5-Fluoro-2-(4-fluoro-benzyl)-4,9-dihydroxy-benzo[f]isoindole-1,3-dione] stands > 100000 nM; under `O=C1c2c(c(O)c3nccnc3c2O)C(=O)N1CCc1ccccc1` [Compound 14, 5,9-Dihydroxy-7-phenethyl-pyrrolo[3,4-g]quinoxaline-6,8-dione], 2040 nM.
Same read-out and setting: to `C[C@H](c1ccccc1)N1C(=O)c2c(c(O)c3nccnc3c2O)C1=O` [Compound 15, 5,9-Dihydroxy-7-(1-(R)-phenyl-ethyl)-pyrrolo[3,4-g]quinoxaline-6,8-dione] belongs 1050 nM; to `O=C1c2c(c(O)c3nccnc3c2O)C(=O)N1Cc1cccc(F)c1` [Compound 16, 7-(3-Fluoro-benzyl)-5,9-dihydroxy-pyrrolo[3,4-g]quinoxaline-6,8-dione], 562 nM.
Still for that read-out and setting: under `COc1ccc(CN2C(=O)c3c(c(O)c4nccnc4c3O)C2=O)cc1` [Compound 17, 5,9-Dihydroxy-7-(4-methoxy-benzyl)-pyrrolo[3,4-g]quinoxaline-6,8-dione] stands 562 nM.
Regarding `O=C1c2c(c(O)c3nccnc3c2O)C(=O)N1Cc1cccc(CN2C(=O)c3c(c(O)c4nccnc4c3O)C2=O)c1` [Compound 18, 7-[3-(5,9-Dihydroxy-6,8-dioxo-6,8-dihydro-pyrrolo[3,4-g]quinoxalin-7-ylmethyl)-benzyl]-5,9-dihydroxy-pyrrolo[3,4-g]quinoxaline-6,8-dione], the IC50 is 7590 nM.
For the compound `Cc1ccc2c(O)c3c(c(O)c2n1)C(=O)N(CCc1ccccc1)C3=O` [Compound 19, 5,9-Dihydroxy-2-methyl-7-phenethyl-pyrrolo[3,4-g]quinoline-6,8-dione], the IC50 was 4170 nM.
Regarding `Cc1ccc2c(O)c3c(c(O)c2n1)C(=O)N(Cc1ccc2c(c1)OCO2)C3=O` [Compound 20, 7-Benzo[1,3]dioxol-5-ylmethyl-5,9-dihydroxy-2-methyl-pyrrolo[3,4-g]quinoline-6,8-dione], the IC50 was 2140 nM.
For the compound `Cc1ccc2c(O)c3c(c(O)c2n1)C(=O)N(Cc1cccc(F)c1)C3=O` [Compound 21, 7-(3-Fluoro-benzyl)-5,9-dihydroxy-2-methyl-pyrrolo[3,4-g]quinoline-6,8-dione], the half-maximal inhibitory concentration (IC50) is 871 nM.
Still for that read-out and setting: to `Cc1ccc2c(O)c3c(c(O)c2n1)C(=O)N(Cc1ccc(F)cc1)C3=O` [Compound 22, 7-(4-Fluoro-benzyl)-5,9-dihydroxy-2-methyl-pyrrolo[3,4-g]quinoline-6,8-dione] belongs 398 nM; to `COc1ccc(CN2C(=O)c3c(c(O)c4nc(C)ccc4c3O)C2=O)cc1` [Compound 23, 5,9-Dihydroxy-7-(4-methoxy-benzyl)-2-methyl-pyrrolo[3,4-g]quinoline-6,8-dione], 1480 nM.
Still for that read-out and setting: to `O=C1c2c(c(O)c3ncccc3c2O)C(=O)N1CCc1ccccc1` [Compound 24, 5,9-Dihydroxy-7-phenethyl-pyrrolo[3,4-g]quinoline-6,8-dione] belongs 2510 nM.
Still for that read-out and setting: to `CC(c1ccccc1)N1C(=O)c2c(c(O)c3nccnc3c2O)C1=O` (stereo not shown) [Compound 25, 5,9-Dihydroxy-7-(1-phenyl-ethyl)-pyrrolo[3,4-g]quinoxaline-6,8-dione] belongs 2040 nM; to `O=C1c2c(c(O)c3nccnc3c2O)C(=O)N1CC1CCCCC1` [Compound 26, 7-Cyclohexylmethyl-5,9-Dihydroxy-pyrrolo[3,4-g]quinoxaline-6,8-dione], 2190 nM.
Consider `O=C1c2c(c(O)c3nccnc3c2O)C(=O)N1Cc1cccc2ccccc12` [Compound 27, 5,9-Dihydroxy-7-naphthalen-1-ylmethyl-pyrrolo[3,4-g]quinoxaline-6,8-dione], for which the IC50 was 1410 nM.
Take `O=C1c2c(c(O)c3nccnc3c2O)C(=O)N1CCN1CCOCC1` [Compound 28, 5,9-Dihydroxy-7-(2-morpholine-4-yl-ethyl)-pyrrolo[3,4-g]quinoxaline-6,8-dione]: the IC50 is 66100 nM.
For the compound `O=C1c2c(c(O)c3nccnc3c2O)C(=O)N1Cc1ccncc1` [Compound 29, 5,9-Dihydroxy-7-pyridin-4-ylmethyl-pyrrolo[3,4-g]quinoxaline-6,8-dione], the IC50 is 6760 nM.
On the same count and under the same terms, to `Cc1ccc2c(O)c3c(c(O)c2n1)C(=O)N(c1ccccc1)C3=O` [Compound 30, 5,9-Dihydroxy-2-methyl-7-phenyl-pyrrolo[3,4-g]quinoline-6,8-dione] belongs 24000 nM.
Still for that read-out and setting: to `O=C1c2c(c(OCc3ccccc3)c3nccnc3c2O)C(=O)N1Cc1ccc2c(c1)OCO2` [Compound 31, 7-Benzo[1,3]dioxol-5-ylmethyl-5-benzyloxy-9-hydroxy-pyrrolo[3,4-g]quinoxaline-6,8-dione] belongs > 100000 nM; to `O=C1c2c(c(O)c3nccnc3c2O)C(=O)N1C1CCCC1` [Compound 32, 7-Cyclopentyl-5,9-dihydroxy-pyrrolo[3,4-g]quinoxaline-6,8-dione], 10500 nM.
The same measure, in the same setting: under `O=C1c2c(c(O)c3nccnc3c2O)C(=O)N1c1ccc(F)cc1` [Compound 33, 7-(4-Fluoro-phenyl)-5,9-dihydroxy-pyrrolo[3,4-g]quinoxaline-6,8-dione] stands 21900 nM; under `CS(=O)(=O)c1ccc(CN2C(=O)c3c(c(O)c4nccnc4c3O)C2=O)cc1` [Compound 34, 5,9-Dihydroxy-7-(4-methanesulfonyl-benzyl)-pyrrolo[3,4-g]quinoxaline-6,8-dione], 8710 nM; under `O=C1c2c(c(O)c3nccnc3c2O)C(=O)N1c1ccccc1Br` [Compound 35, 7-(2-Bromo-phenyl)-5,9-dihydroxy-pyrrolo[3,4-g]quinoxaline-6,8-dione], 1820 nM.
As to `C#CCOc1c2c(c(O)c3nccnc13)C(=O)N(Cc1ccc3c(c1)OCO3)C2=O` [Compound 36, 7-Benzo[1,3]dioxol-5-ylmethyl-5-hydroxy-9-prop-2-ynyloxy-pyrrolo[3,4-g]quinoxaline-6,8-dione], the IC50 is 18200 nM.
`CC(C)CCOc1c2c(c(O)c3nccnc13)C(=O)N(Cc1ccc3c(c1)OCO3)C2=O` [Compound 37, 7-Benzo[1,3]dioxol-5-ylmethyl-5-hydroxy-9-(3-methyl-butoxy)-pyrrolo[3,4-g]quinoxaline-6,8-dione]: the IC50 is 1480 nM.

The assay is the same for the next values; noted with them: pIC50=−log IC50, expressed in Molar units; strand transfer, 5 mM MnCl2, 2 h at 37° C.
The pIC50 is the negative decadic logarithm of the IC50, by convention in mol/L. On to `CCOC(=O)C(=O)Oc1c2c(c(O)c3nccnc13)CN(Cc1ccc3c(c1)OCO3)C2` [Compound 6, Oxalic acid 7-benzo[1,3]dioxol-5-ylmethyl-9-hydroxy-6,8-dihydro-6H-pyrrolo[3,4-g]quinoxalin-5-yl ester ethyl ester], for which the pIC50 is 5.50.
